In experiment [1] the test system is Hs 578T breast cancer cells. Put plainly: Alamar Blue cell inhibition assay, Hs 578T. The experiment is classed as cell-based. The settings on record: 4 day assay, read-out: IC50 (single agent). A general note: The colour change of resazurin is a common sign of viable cells or microbes.
Experiment [2] has as its system BT-474 breast carcinoma cells. Nature of the experiment: Alamar Blue cell inhibition assay, BT-474. The settings on record: read-out: IC50 (single agent). It counts as cell-based.
For experiment [3], the system named is MDA-MB-468 breast cancer cells. Nature of the experiment: Alamar Blue cell inhibition assay, MDA-MB-468. The experiment is classed as cell-based. The settings on record: 5 day assay, read-out: IC50 (single agent).
Experiment [4] deals with T47D breast carcinoma cells. Put plainly: Alamar Blue cell inhibition assay, T47D. It counts as cell-based. The settings on record: read-out: IC50 (single agent).
In experiment [5] the test system is MIA PaCa-2 pancreatic cancer cells. Nature of the experiment: Alamar Blue cell inhibition assay, MIA PaCa-2.
The subject of the next experiment is A375 melanoma cells. Nature of the experiment: Alamar Blue cell inhibition assay, A375. The experiment is classed as cell-based. The settings on record: drug added 24 hours before Compound K, read-out: IC50 (single agent).
The test system of experiment [6] is phosphorylation of AKT at S129, T308, S473, p21 at T145, cleavage of PARP. Put plainly: Western hybridization analysis in BT-474 (AKT, p21 phosphorylation, PARP cleavage). It counts as cell-based. The settings on record: 5 uM Compound K, 1 uM AKTi VIII, 5:1 combination, 8 hour assay.
For experiment [7], the system named is erlotinib-resistant MDA-MB-453 breast carcinoma cells. The settings on record: read-out: IC50 (single agent), 4 day assay.
Experiment [8] relates to phosphorylation of Akt at Ser129 and Ser473, PRAS40 at Thr246. The settings on record: MDA-MB-453; 10 uM Compound K, 100 uM Erlotinib, 2 uM Lapatinib; 2, 4 and 8 hour. The text has this: Whole proteomes were isolated from treated cells and analyzed by Western blot for changes in phosphorylation status of Akt at Ser129 and Ser473 or downstream mediator of Akt activity, PRAS40 at Thr246.

In experiment [9] the test system is SUM-190PT inflammatory breast carcinoma cells. Put plainly: cells. The settings on record: for IC50: read-out: IC50 (single agent).
In experiment [10] the test system is erlotinib-resistant ZR-75-1 breast carcinoma cells. Nature of the experiment: Alamar Blue cell inhibition assay, ZR-75-1. The settings on record: 4 day assay, read-out: IC50 (single agent). It counts as cell-based.
Experiment [11] relates to SUM-149PT inflammatory breast carcinoma cells. Nature of the experiment: Alamar Blue cell inhibition assay, SUM-149PT. It counts as cell-based. The settings on record: for IC50: read-out: IC50 (single agent).
Experiment [12] has as its system erlotinib-resistant MDA-MB-453 breast carcinoma cells. Put plainly: cells. The settings on record: Homo sapiens, MDA-MB-453, 96 h, read-out: IC50 (single agent).
Where [13] appears, read: Compound K added first, drug the next day.
[14] abbreviates: Homo sapiens, 96 h, T47D, 4 day assay.
Where [15] appears, read: Homo sapiens, 96 h, BT-474, 4 day assay.
[16] abbreviates: Homo sapiens, 72 h, BT-474, 3 day assay.
Where [17] appears, read: Homo sapiens, MIA PaCa-2, read-out: IC50 (single agent).
Setting [18] is: Homo sapiens, A-375, A375, 5 day assay.
[19] abbreviates: Homo sapiens, MDA-MB-468, 120 h, Compound K added first, drug the next day.
Where [20] appears, read: Homo sapiens, MDA-MB-468, 120 h, drug added first, Compound K the next day.

19 molecules from patent publication US20100173013A1, “TREATMENT OF NEOPLASTIC DISORDERS USING COMBINATION THERAPIES” (priority 2009, published 2010) can be followed below.

Several values for one entry are separate records, joined by “and”; a condition that tells them apart may be missing. Identical values can stand only once. Counter-ions that a name gives are not always drawn. Like-named read-outs stand apart in the source and are kept apart here.

For the molecule `CO[C@H]1/C=C\C=C(/C)C(=O)NC2=CC(=O)C(NCCN(C)C)=C(C[C@@H](C)C[C@H](OC)[C@H](O)[C@@H](C)/C=C(\C)[C@@H]1OC(N)=O)C2=O` [Compound 17-DMAG, 17-Dimethylamino-ethylamino-17-demethoxygeldanamycin], the IC50 in experiment [1] was found to be 0.00637 µM.

Consider `O=C(O)c1ccc2c(c1)nc(Nc1cccc(Cl)c1)c1ccncc12` [Compound K], for which the half-maximal inhibitory concentration (IC50) in experiment [2] is 2.7 µM and 2.9 µM and 2.68 µM; in experiment [3] (setting [13]), 4.6 µM and 4.5 µM and 4.3 µM; in experiment [3] (drug added first, Compound K the next day) it was 4.4 µM and 4.3 µM and 4.5 µM; in experiment [4] (T47D, 4 day assay), 5.9 µM and 5.87 µM; in experiment [4] (T-47D, 3 day assay), 3.35 µM; in [5] (read-out: IC50 (single agent), MIA PaCa-2, added simultaneously, 4 day assay), 1.7 µM. Moreover, the concentration for half-maximal inhibition (IC50) in [5] (read-out: IC50 (single agent), MIA PaCa-2, drug added 24 hours before Compound K, 4 day assay) is 1.5 µM and 2 µM; in experiment [5] (read-out: IC50 (single agent), MIA PaCa-2, drug added 24 hours before Compound K, 5 day assay) it was 4.1 µM; with A375 melanoma cells (A375, 4 day assay), 5 µM and 4.8 µM and 5.1 µM; in experiment [7], 6.15 µM; in experiment [9] (SUM-190PT, drug added 24 hours before Compound K, 5 day assay), 0.852 µM; in [1], 17.6 µM and 16.7 µM. In addition, the IC50 in experiment [10] is 4.1 µM. In addition, in [6], the “cleavage of PARP (i.e. induction of apoptosis)” value is “very minor effect”. In experiment [6], the “phosphorylation of AKT at S129” value is “Dramatically reduced”. The “phosphorylation of AKT at T308 and S473” value in experiment [6] is listed as “moderate effect”. Further, in [6], the “phosphorylation of p21 at T145” value is “Dramatically decreased”. In addition, the “phosphorylation of Akt at Ser129” value in experiment [8] is on record as “significant reduction”. Besides, the “phosphorylation of Akt at Ser473” value in experiment [8] was “affected, but to a lesser degree”. The “phosphorylation of PRAS40 at Thr246” value in experiment [8] is recorded as “significantly less pronounced”.

Regarding `CS(=O)(=O)CCNCc1ccc(-c2ccc3ncnc(Nc4ccc(OCc5cccc(F)c5)c(Cl)c4)c3c2)o1` [Lapatinib], in experiment [4] (setting [14]), the IC50 came to 5.68 µM. Besides, in experiment [8], the “phosphorylation of Akt at Ser129” value is “no effect”, the “phosphorylation of Akt at Ser473” value was “below the detectable levels” and the “phosphorylation of PRAS40 at Thr246” value is “pronounced decrease”.

Regarding `C#Cc1cccc(Nc2ncnc3cc(OCCOC)c(OCCOC)cc23)c1` [Erlotinib], the IC50 was 6.6 µM in experiment [2] (setting [15]); 2.2 µM in [11] (Homo sapiens, SUM149PT); 47 µM in [4] (setting [14]); more than 100 µM in [12]; more than 200 µM in experiment [10] (Homo sapiens, 96 h). The “degree of inhibitory effect found with agent combination” value in experiment [11] (Compound K 0 μM, Erlotinib 10 μM, Erlotinib added 24 h before K, 5 day assay, positive=synergy, negative=antagonism) came to 0.0%. Also, in [8], the “phosphorylation of Akt at Ser129” value is given as “no effect”. Besides, the “phosphorylation of Akt at Ser473” value in [8] is “below the detectable levels”. In addition, the “phosphorylation of PRAS40 at Thr246” value in experiment [8] is given as “pronounced decrease”.

For `O=c1[nH]c2ccccc2n1C1CCN(Cc2ccc(-c3nc4cc5[nH]cnc5cc4nc3-c3ccccc3)cc2)CC1` [AKTi VIII, 1,3-Dihydro-1-(1-((4-(6-phenyl-1H-imidazo[4,5-g]quinoxalin-7-yl)phenyl)methyl)-4-piperidinyl)-2H-benzimidazol-2-one], the IC50 in experiment [2] (setting [16]) is 0.55 µM. Further, the half-inhibitory concentration (IC50) in [2] (setting [15]) turned out to be 0.5 µM. In experiment [6], the “cleavage of PARP (i.e. induction of apoptosis)” value is on record as “very minor effect”; the “phosphorylation of AKT at S129” value was “no effect”; the “phosphorylation of AKT at T308 and S473” value is listed as “Dramatically reduced”; the “phosphorylation of p21 at T145” value was “Dramatically decreased”.

With `CC[C@]1(O)C[C@@H]2CN(CCc3c([nH]c4ccccc34)[C@@](C(=O)OC)(c3cc4c(cc3OC)N(C)[C@H]3[C@@](O)(C(=O)OC)[C@H](OC(C)=O)[C@]5(CC)C=CCN6CC[C@]43[C@@H]65)C2)C1` [Vinblastine], the figures for the IC50 (in experiment [5] (setting [17]); in the experiment on A375 melanoma cells (setting [18])) were 1.4e-05 µM and 0.0012 µM, respectively.

In the case of `N.N.[Cl][Pt][Cl]` [Cisplatin], the IC50 was 0.462 µM in experiment [11] (SUM-149PT, drug added 24 hours before Compound K, 5 day assay) and 0.43 µM in experiment [3] (setting [13]).

Regarding `CO[C@H]1C[C@@H]2CC[C@@H](C)[C@@](O)(O2)C(=O)C(=O)N2CCCC[C@H]2C(=O)O[C@H]([C@H](C)C[C@@H]2CC[C@@H](O)[C@H](OC)C2)CC(=O)[C@H](C)/C=C(\C)[C@@H](O)[C@@H](OC)C(=O)[C@H](C)C[C@H](C)/C=C/C=C/C=C/1C` [Rapamycin], the IC50 in experiment [11] (Homo sapiens, SUM149PT) amounted to 9.7 µM; in [5] (Homo sapiens, MIA PaCa-2, 96 h, read-out: IC50 (single agent)), 18.1 µM.

Regarding `O=c1[nH]cc(F)c(=O)[nH]1` [5-Fluorouracil], the IC50 in [11] (Homo sapiens, SUM149PT) came out at 1.7 µM; in [3] (setting [19]), 10.6 µM; in the experiment on A375 melanoma cells (setting [18]), 3 µM; in experiment [9] (SUM190PT), 12.2 µM. Besides, in experiment [9] (Compound K 0 μM, 5-Fluorouracil 10 μM, 5-Fluorouracil added 24 h before K, 5 day assay, positive=synergy, negative=antagonism), the “degree of inhibitory effect found with agent combination” value was 0.0% and −0.0%.

With `Cn1c(=O)n(-c2ccc(C(C)(C)C#N)cc2)c2c3cc(-c4cnc5ccccc5c4)ccc3ncc21` [BEZ235], in [2] (setting [16]), the IC50 was 0.01 µM.

With `CNC(=O)c1cc(Oc2ccc(NC(=O)Nc3ccc(Cl)c(C(F)(F)F)c3)cc2)ccn1` [Sorafenib], the IC50 in [4] (setting [14]) worked out at 3.58 µM.

On to `COC[C@H]1OC(=O)c2coc3c2[C@@]1(C)C1=C(C3=O)[C@@H]2CCC(=O)[C@@]2(C)C[C@H]1OC(C)=O` [Wortmannin], for which the IC50 in experiment [2] (setting [16]) was 25.9 µM.

Take `O=c1cc(N2CCOCC2)oc2c(-c3ccccc3)cccc12` [LY294002, 2-(4-morpholinyl)-8-phenyl-4H-1-benzopyran-4-one]: the IC50 in [2] (setting [16]) came to 2.26 µM.

For the molecule `Nc1nc(F)nc2c1ncn2[C@@H]1O[C@H](CO)[C@@H](O)[C@@H]1O` [Fludarabine], the IC50 with A375 melanoma cells (setting [18]) came to 0.0029 µM.

With `COc1cccc2c1C(=O)c1c(O)c3c(c(O)c1C2=O)C[C@@](O)(C(=O)CO)C[C@@H]3O[C@H]1C[C@H](N)[C@H](O)[C@H](C)O1` [Doxorubicin], the IC50 in [3] (setting [19]) is 0.016 µM; in [3] (setting [20]) it was 0.017 µM.

For `Oc1cccc(-c2nc(N3CCOCC3)c3oc4ncccc4c3n2)c1` [PI-103, 3-[4-(4-morpholinylpyrido[3′,2′:4,5]furo[3,2-d]pyrimidin-2-yl]phenol hydrochloride], the IC50 in [2] (setting [16]) is 0.41 µM; in experiment [4] (Homo sapiens, T47D, 72 h), 5.37 µM.

On to `Cc1[nH]c2ccccc2c1CCNCc1ccc(/C=C/C(=O)NO)cc1` [Panobinostat], for which the IC50 in experiment [1] (Homo sapiens, 96 h) is 0.00276 µM.

For the molecule `Nc1ccn([C@@H]2O[C@H](CO)[C@@H](O)C2(F)F)c(=O)n1` [Gemcitabine], the IC50 in [3] (setting [19]) is 0.008 µM; in experiment [3] (setting [20]) it was 0.0088 µM; in experiment [5] (setting [17]), 0.184 µM.

In the case of `CCN(CC)CCNC(=O)c1c(C)[nH]c(/C=C2\C(=O)Nc3ccc(F)cc32)c1C` [Sunitinib], the IC50 in experiment [4] (setting [14]) was determined as 6.2 µM; in experiment [5] (setting [17]) it was 0.42 µM; in the experiment with A375 melanoma cells (Homo sapiens, A-375, A375, 4 day assay), 0.145 µM.

As a reminder, the IC50 is the concentration at which inhibition is half-maximal.
